Like-named read-outs stand apart in the source and are kept apart here.
Tests used:
41M = assay: Cell proliferation, human cancer cell line 41M; format: cell-based; conditions: read-out: concentration necessary to achieve a 50% decrease in cell proliferation
Experimental: (§1) The complexes of the invention were tested against human cancer cell lines grown in cell culture according to established testing procedures (described by Holford, et al., British J. Cancer 1998 77(3) 366-373). The results are given in concentrations (μM) necessary to achieve a 50% decrease in cell proliferation, with resistance factors in brackets for the cisplatin-resistant cell lines.

CH1R = assay: Cell proliferation, cisplatin-resistant human cancer cell line CH1R; format: cell-based; conditions: for resistance factor: CH1R/CH1, in brackets; for IC50: CH1R, read-out: concentration necessary to achieve a 50% decrease in cell proliferation
Experimental: as §1

A2780R = assay: Cell proliferation, cisplatin-resistant human cancer cell line A2780R; format: cell-based; conditions: for resistance factor: A2780R/A2780, in brackets; for IC50: A2780R, read-out: concentration necessary to achieve a 50% decrease in cell proliferation
Experimental: as §1

A2780 = assay: Cell proliferation, human cancer cell line A2780; format: cell-based; conditions: read-out: concentration necessary to achieve a 50% decrease in cell proliferation
Experimental: as §1

CH1 = assay: Cell proliferation, human cancer cell line CH1; format: cell-based; conditions: read-out: concentration necessary to achieve a 50% decrease in cell proliferation
Experimental: as §1

41MR = assay: Cell proliferation, cisplatin-resistant human cancer cell line 41MR; format: cell-based; conditions: for IC50: 41MR, read-out: concentration necessary to achieve a 50% decrease in cell proliferation; for resistance factor: 41MR/41M, in brackets
Experimental: as §1

[1] = Aqueous solubility at ambient conditions; format: physicochemical
[2] = background statement; cited from earlier work
[3] = Maximum tolerated dose in mice; format: in vivo

Work on `Cc1c[n+]([Pt-2]([NH3+])([Cl])[Cl])c(C)cn1` [Example 5] yielded an IC50 (41M) of 11.5 µM, a resistance factor (CH1R) of 1.6 and an IC50 (CH1R) of 8 µM. For the same molecule, the resistance factor (A2780R) was 5.8, the IC50 (A2780R) was 35 µM and the IC50 (A2780) was 6 µM. For the same molecule, the IC50 (CH1) was 5 µM and the IC50 (41MR) was 9 µM.
In the case of `Cc1ncc[n+]([Pt-2]([NH3+])([Cl])[Cl])c1C` [Example 6], the IC50 (41M) is reported as 6.6 µM, the resistance factor (CH1R) is reported as 1.7 and the IC50 (CH1R) is reported as 5.4 µM. It also gave a resistance factor (A2780R) of 5.1, an IC50 (A2780R) of 17.5 µM and an IC50 (A2780) of 3.4 µM. The IC50 (CH1) was 3.2 µM and the IC50 (41MR) was 6.5 µM.
With `Cc1cc(C)[n+]([Pt-2]([NH3+])([Cl])[Cl])o1` [Example 4] the IC50 (41M) was 8 µM, the resistance factor (CH1R) was 2.5 and the IC50 (CH1R) was 8 µM. For the same molecule, the “Aqueous Solubility” value [1] was 1270 µg/mL, the resistance factor (A2780R) was 6.4 and the IC50 (A2780R) was 23.5 µM. It also gave an IC50 (A2780) of 3.7 µM, an IC50 (CH1) of 3.2 µM and an IC50 (41MR) of 6 µM.
For `[NH2][Pt]1([NH2])[O]C(=O)C2(CCC2)C(=O)[O]1` [carboplatin, diammine[1,1-cyclobutanedicarboxylato (2-)]-O,O′-platinum(II), reference compound], the Aqueous Solubility [2] is listed as 14000 µg/mL, the IC50 (41M) is listed as 3.3 µM and the resistance factor (CH1R) is listed as 4.5. For the same molecule, the IC50 (CH1R) was 6 µM, the IC50 (A2780R) was 25.9 µM and the IC50 (A2780) was 1.8 µM. It also gave an IC50 (CH1) of 1.3 µM, a resistance factor (41MR) of 2.7 and an IC50 (41MR) of 8.8 µM.
“cis-ammine(2-methylpyridine)dichloroplatinum(II) [reference compound]” showed an IC50 (41M) of 5.6 µM, a resistance factor (CH1R) of 1 and an IC50 (CH1R) of 2.1 µM. The resistance factor (A2780R) was 4.8, the IC50 (A2780R) was 12 µM and the IC50 (A2780) was 2.5 µM. For the same molecule, the IC50 (CH1) was 2.2 µM, the resistance factor (41MR) was 1.1 and the IC50 (41MR) was 6 µM.
`N.N.[Cl][Pt][Cl]` [cisplatin, [PtCl2(NH3)2], reference compound] gave an IC50 (41M) of 0.26 µM, a resistance factor (CH1R) of 6.5 and an IC50 (CH1R) of 0.71 µM. The IC50 (A2780R) was 5.2 µM, the IC50 (A2780) was 0.33 µM and the “maximum tolerated dose (MTD)” value [3] was 11.3 mg/kg. It also gave an IC50 (CH1) of 0.11 µM, a resistance factor (41MR) of 4.6 and an IC50 (41MR) of 1.2 µM.
With `Cc1oc(C)[n+]([Pt-2]([NH3+])([Cl])[Cl])c1C` [Example 10] the IC50 (41M) was 11.8 µM, the resistance factor (CH1R) was 1.8 and the IC50 (CH1R) was 9.4 µM. For the same molecule, the resistance factor (A2780R) was 4.1, the IC50 (A2780R) was 40 µM and the IC50 (A2780) was 9.8 µM. The IC50 (CH1) was 5.2 µM and the IC50 (41MR) was 11.5 µM.
`Cn1cc[n+]([Pt-2]([NH3+])([OH])([OH])([Cl])[Cl])c1` [Example 12, (OC-6-43)-amminedichlorodihydroxo-(1-methylimidazole)platinum(IV)] showed an IC50 (41M) of 23.5 µM, a resistance factor (CH1R) of 1.9 and an IC50 (CH1R) of 24.5 µM. It also gave a resistance factor (A2780R) of 4.5, an IC50 (A2780R) of 77 µM and an IC50 (A2780) of 17 µM. The IC50 (CH1) was 13 µM, the resistance factor (41MR) was 1.9 and the IC50 (41MR) was 45 µM.
`Cc1cc(C)[n+]([Pt-2]([NH3+])([Cl])[Cl])n1C` [Example 2, (SP-4-3)-amminedichloro(1,3,5-trimethylpyrazole)platinum(II)] gave an IC50 (41M) of 8.5 µM, a resistance factor (CH1R) of 1.2 and an IC50 (CH1R) of 11 µM. For the same molecule, the “decrease in resistance factor” value (A2780R; A2780/A2780R, compared to cis-ammine(2-methylpyridine)dichloroplatinum(II)) was 2.6 fold, the resistance factor (A2780R) was 1.8 and the IC50 (A2780R) was 15.5 µM. For the same molecule, the IC50 (A2780) was 8.5 µM, the “maximum tolerated dose (MTD)” value [3] was “greater than 50 mg/Kg” and the IC50 (CH1) was 9.2 µM. It also gave a resistance factor (41MR) of 1.8 and an IC50 (41MR) of 15.5 µM.
For `Cn1cc[n+]([Pt-2]([NH3+])([Cl])[Cl])c1` [Example 3], the IC50 (41M) was 7.4 µM, the resistance factor (CH1R) was 1.4 and the IC50 (CH1R) was 10.5 µM. The resistance factor (A2780R) was 2.6, the IC50 (A2780R) was 16.5 µM and the IC50 (A2780) was 6.4 µM. For the same molecule, the IC50 (CH1) was 7.6 µM, the resistance factor (41MR) was 1.7 and the IC50 (41MR) was 12.5 µM.

From patent publication US6894049B1, “Platinum complexes as antitumor agents” (AnorMED, Inc., priority 2000, dated 2005)
